Assay results: patent publication US8178506B2, “Oligomeric compounds and compositions for use in modulation of small non-coding RNAs” (Regulus Therapeutics Inc., priority 2003, dated 2012)
In the oligonucleotide strings, read from the 5' end, every base follows the letter of its sugar. An asterisk marks phosphorothioate; unmarked linkages are phosphodiester. Other units and linkages are bracketed, terminal groups are in braces. A string of capitals states the bases alone. e = 2'-O-(2-methoxyethyl) (MOE); [5mC] = 5-methylcytosine

Tests used:
adipocytes = test: Triglyceride accumulation assay in adipocytes; type: cell-based, human
aP2 = aP2 mRNA expression in adipocytes (real-time PCR); type: cell-based, human; conditions: for aP2 mRNA: differentiating adipocytes transfected with oligomeric compound, Table 75; for AP2 (mRNA expression): adipocytes, 250 nM oligomeric compound, day nine post-transfection, relative to control (1.0)
HSL = HSL mRNA expression in adipocytes (real-time PCR); type: cell-based, human; conditions: for HSL mRNA: differentiating adipocytes transfected with oligomeric compound, Table 75; for HSL (mRNA expression): adipocytes, 250 nM oligomeric compound, day nine post-transfection, relative to control (1.0)
Glut4 = Glut4 mRNA expression in adipocytes (real-time PCR); type: cell-based, human; conditions: for GLUT4 mRNA: differentiating adipocytes transfected with oligomeric compound, Table 75; for Glut4 (mRNA expression): adipocytes, 250 nM oligomeric compound, day nine post-transfection, relative to control (1.0)
PPARγ = PPARγ mRNA expression in adipocytes (real-time PCR); type: cell-based, human; conditions: for PPAR gamma mRNA: differentiating adipocytes transfected with oligomeric compound, Table 75; for PPAR gamma (mRNA expression): adipocytes, 250 nM oligomeric compound, day nine post-transfection, relative to control (1.0)
HuVECs = test: Endothelial tube formation assay in HuVECs; conditions: 75 nM oligomeric compound, Table 57
[1] = differentiating adipocytes transfected with oligomeric compound, Table 75
[2] = adipocytes, 250 nM oligomeric compound, relative to control (1.0), Table 15
[3] = adipocytes, 250 nM oligomeric compound, relative to control (1.0), Table 16

Substance | TG (triglyceride accumulation) (adipocytes; [1]) | aP2 mRNA (aP2) | HSL mRNA (HSL) | GLUT4 mRNA (Glut4) | PPAR gamma mRNA (PPARγ) | % Activity Relative to UTC (tube formation) (HuVECs) | TG (triglyceride accumulation) (adipocytes; [2]) | AP2 (mRNA expression) (aP2; Table 15) | HSL (mRNA expression) (HSL; Table 15) | Glut4 (mRNA expression) (Glut4; Table 15) | PPAR gamma (mRNA expression) (PPARγ; Table 15) | TG (triglyceride accumulation) (adipocytes; [3]) | AP2 (mRNA expression) (aP2; Table 16) | HSL (mRNA expression) (HSL; Table 16) | Glut4 (mRNA expression) (Glut4; Table 16) | PPAR gamma (mRNA expression) (PPARγ; Table 16)
327906 (antisense eT*e[5mC]*eA*eT*eA*eG*e[5mC]*e[5mC]*e[5mC]*eT*eG*eT*eA*e[5mC]*eA*eA*eT*eG*e[5mC]*eT*eG*e[5mC]*eT) [compound 327906] | 25 percentage of untreated control (UTC) | 46 percentage of untreated control (UTC) | 37 percentage of untreated control (UTC) | 14 percentage of untreated control (UTC) | 50 percentage of untreated control (UTC) | 69.0% |  |  |  |  |  |  |  |  |  | 
327907 (antisense eA*eG*e[5mC]*e[5mC]*eT*eA*eT*e[5mC]*e[5mC]*eT*eG*eG*eA*eT*eT*eA*e[5mC]*eT*eT*eG*eA*eA) [compound 327907] | 19 percentage of untreated control (UTC) | 29 percentage of untreated control (UTC) | 21 percentage of untreated control (UTC) | 6 percentage of untreated control (UTC) | 49 percentage of untreated control (UTC) | 62.1% |  |  |  |  |  |  |  |  |  | 
327910 (antisense eT*eG*eA*eT*eA*eG*e[5mC]*e[5mC]*e[5mC]*eT*eG*eT*eA*e[5mC]*eA*eA*eT*eG*e[5mC]*eT*eG*e[5mC]*eT) [compound 327910] | 24 percentage of untreated control (UTC) | 35 percentage of untreated control (UTC) | 32 percentage of untreated control (UTC) | 16 percentage of untreated control (UTC) | 39 percentage of untreated control (UTC) | 55.2% |  |  |  |  |  |  |  |  |  | 
327911 (antisense eG*e[5mC]*eT*eA*e[5mC]*e[5mC]*eT*eG*e[5mC]*eA*e[5mC]*eT*eG*eT*eA*eA*eG*e[5mC]*eA*e[5mC]*eT*eT*eT*eT) [compound 327911] | 59 percentage of untreated control (UTC) | 76 percentage of untreated control (UTC) | 71 percentage of untreated control (UTC) | 48 percentage of untreated control (UTC) | 75 percentage of untreated control (UTC) | 75.9% |  |  |  |  |  |  |  |  |  | 
327913 (antisense eA*eA*e[5mC]*e[5mC]*eG*eA*eT*eT*eT*e[5mC]*eA*eA*eA*eT*eG*eG*eT*eG*e[5mC]*eT*eA*eG) [compound 327913] |  |  |  |  |  | 69.0% | 0.59 | 0.99 | 0.92 | 0.84 | 0.72 |  |  |  |  | 
327916 (antisense eT*eG*eG*e[5mC]*eA*eT*eT*e[5mC]*eA*e[5mC]*e[5mC]*eG*e[5mC]*eG*eT*eG*e[5mC]*e[5mC]*eT*eT*eA*eA) [compound 327916] | 56 percentage of untreated control (UTC) | 67 percentage of untreated control (UTC) | 64 percentage of untreated control (UTC) | 51 percentage of untreated control (UTC) | 71 percentage of untreated control (UTC) | 96.6% |  |  |  |  |  |  |  |  |  | 
327917 (antisense eT*e[5mC]*eA*eA*e[5mC]*eA*eT*e[5mC]*eA*eG*eT*e[5mC]*eT*eG*eA*eT*eA*eA*eG*e[5mC]*eT*eA) [compound 327917] | 26 percentage of untreated control (UTC) | 32 percentage of untreated control (UTC) | 26 percentage of untreated control (UTC) | 15 percentage of untreated control (UTC) | 54 percentage of untreated control (UTC) | 82.8% |  |  |  |  |  |  |  |  |  | 
327918 (antisense e[5mC]*eT*eA*eG*eT*eA*e[5mC]*eA*eT*e[5mC]*eA*eT*e[5mC]*eT*eA*eT*eA*e[5mC]*eT*eG*eT*eA) [compound 327918] | 65 percentage of untreated control (UTC) | 91 percentage of untreated control (UTC) | 85 percentage of untreated control (UTC) | 66 percentage of untreated control (UTC) | 74 percentage of untreated control (UTC) | 96.6% |  |  |  |  |  |  |  |  |  | 
327919 (antisense eG*eA*eA*eA*e[5mC]*e[5mC]*e[5mC]*eA*eG*e[5mC]*eA*eG*eA*e[5mC]*eA*eA*eT*eG*eT*eA*eG*e[5mC]*eT) [compound 327919] |  |  |  |  |  | 103.5% | 0.58 | 0.79 | 0.57 | 0.32 | 0.52 | 0.40 | 0.48 | 0.37 | 0.18 | 0.57
327920 (antisense eG*eA*eG*eA*e[5mC]*e[5mC]*e[5mC]*eA*eG*eT*eA*eG*e[5mC]*e[5mC]*eA*eG*eA*eT*eG*eT*eA*eG*e[5mC]*eT) [compound 327920] | 20 percentage of untreated control (UTC) | 22 percentage of untreated control (UTC) | 14 percentage of untreated control (UTC) | 0 percentage of untreated control (UTC) | 34 percentage of untreated control (UTC) | 41.4% |  |  |  |  |  |  |  |  |  | 
327921 (antisense e[5mC]*eT*eT*e[5mC]*e[5mC]*eA*eG*eT*e[5mC]*eG*eG*eG*eG*eA*eT*eG*eT*eT*eT*eA*e[5mC]*eA) [compound 327921] | 56 percentage of untreated control (UTC) | 76 percentage of untreated control (UTC) | 76 percentage of untreated control (UTC) | 36 percentage of untreated control (UTC) | 75 percentage of untreated control (UTC) | 96.6% |  |  |  |  |  |  |  |  |  | 
327922 (antisense eT*e[5mC]*eA*eG*eT*eT*eT*eT*eG*e[5mC]*eA*eT*eG*eG*eA*eT*eT*eT*eG*e[5mC]*eA*e[5mC]*eA) [compound 327922] |  |  |  |  |  | 89.7% | 1.09 | 0.99 | 0.95 | 1.75 | 1.37 | 0.43 | 0.75 | 0.72 | 0.43 | 0.80
327923 (antisense eG*eA*eA*eA*eG*eA*eG*eA*e[5mC]*e[5mC]*eG*eG*eT*eT*e[5mC]*eA*e[5mC]*eT*eG*eT*eG*eA) [compound 327923] | 88 percentage of untreated control (UTC) | 65 percentage of untreated control (UTC) | 64 percentage of untreated control (UTC) | 54 percentage of untreated control (UTC) | 77 percentage of untreated control (UTC) | 48.3% |  |  |  |  |  |  |  |  |  | 
